This is an account of results in patent publication US20250304549A1, “HYDROXYAMIDE DERIVATIVE AND USE THEREOF” (SICHUAN HUIYU PHARMACEUTICAL CO., LTD., priority 2022, published 2025).

Structures can show the parent of a compound that is named as a salt.

One experiment has as its target LSD1 (Homo sapiens (Human), UniProt O60341). Briefly: In vitro enzyme inhibition assay - LSD1 (HTRF). It is filed as biochemical. The procedure:
1. In Vitro Enzyme Inhibition Assay—LSD1
Initially, a master solution of 90 μM test compound (dissolved in DMSO) was prepared and sequentially diluted with DMSO in a 5-fold concentration gradient to yield a total of 9 concentrations of the compound working solution 1 (90×). Subsequently these 9 concentrations of working solution 1 were sequentially diluted by a 30-fold concentration gradient, i.e., 2 μL of working solution 1 was aspirated and added to 58 μL of Buffer, mixed on a vortex mixer with sufficient shaking to yield 9 concentrations of the screening test compound working solution 2 (3×). […] The mixture was incubated at room temperature for 15 minutes. […] Afterward, 2 μL of a termination solution (containing 5.4 mM 2-PCPA) was added to each well, mixed evenly, and incubated for another 15 minutes. Finally 4 μL of a pre-mixed antibody solution of Eu-anti H3K4 (PerkinElmer, TRF0404-D) and allophycocyanin (Prozyme, PJ27S) (1:1) was added to each well, mixed evenly, and incubated for 60 minutes. […] The inhibition rate was calculated through the following formula: […]
(§1) Note: ‘Negative’ refers to the group without the inhibitor; ‘Blank’ refers to the group without the enzyme.
(§2) The IC50 value was calculated by fitting the inhibition rate by GraphPad Prism software, employing log (inhibitor) vs. response-Variable Slope (four parameters) model.
(In general: In TR-FRET formats the signal depends on donor and acceptor labels being close together.)

For the next experiment, the target named is pan-HDAC. Briefly: In vitro enzyme inhibition assay - HDAC (HDAC-Glo I/II), pan-HDAC. Type of experiment: biochemical. The method, then:
2. In Vitro Enzyme Inhibition Assay—HDAC
The effect of the compound on the enzymatic activity of pan-HDAC and two isoforms (HDAC1 and HDAC8) was examined using the HDAC-Glo I/II Assay and Screening System assay to assess the level of inhibition of HDAC protease activity and selectivity in each isoform. The proteins and detection reagents were from the HDAC-Glo™ I/II Assay and Screening System (Promega). A 1 mM stock solution of the compound was prepared in DMSO and diluted in a 5-fold gradient to create a series of 8 concentrations, and a specific volume of the highest concentration was diluted 25 times with HDAC Buffer to obtain 4× working solution of the compound. […] The 384-well plate was then read on a multifunctional microplate reader, with the Luminescence channel selected to record Luminescence values (RLU). The inhibition rate was calculated using the following formula: […]
as §1, §2

The test system of another experiment is NCI-H1417 cells. The experiment can be described thus: In vitro cell inhibition assay - H1417 cell proliferation (CellTiter-Glo). It is filed as cell-based. To be noted: Homo sapiens, NCI-H1417, H1417 small cell lung cancer cell proliferation. The procedure:
3. In Vitro Cell Inhibition Assay—H1417 Cell Proliferation
The inhibitory effect of the compounds on cell proliferation was assessed by detecting the number of viable cells using the CellTiter-Glo® reagent. […] The compounds were sequentially diluted in a 5-fold concentration gradient with DMSO to obtain 8 different concentrations o. These were diluted with BEGM (containing 10% FBS) cell culture medium to obtain the compound working solution (2×), which was added to the cell supernatant at 100 μL per well. The incubation continued for 7 days at 37° C., 5% CO2. The plate was then removed and equilibrated to room temperature (25° C.) along with the CellTiter-Glo® mixing reagent for 10-30 minutes. After centrifugation, 100 μL of the culture medium was carefully aspirated from each well, and 85 μL of CellTiter-Glo® reagent was added. The cells were thoroughly mixed with the CellTiter-Glo® mixing reagent using a microplate shaker for 2 min. and then incubated at room temperature for 10 min. The 96-well plate was subsequently placed on a multifunctional microplate reader to record the Luminescence values (RLU). • The inhibition rate was calculated using the following formula: […]
(§3) Note: ‘Negative’ refers to the group without inhibitors; ‘Blank’ refers to the group without cells.
(§4) The IC50 value was determined by fitting the inhibition rate by GraphPad Prism software.
In general terms: In ATP-based viability assays light output follows the ATP content of the culture.

The subject of a further experiment is NCI-H69 cells. The experiment can be described thus: In vitro cell inhibition assay - NCI-H69 cell proliferation (CellTiter-Glo). The settings on record: Homo sapiens, NCI-H69, H69 small cell lung cancer cell proliferation. Type of experiment: cell-based. The method, then:
4. In Vitro Cell Inhibition Assay—NCI-H69 Cell Proliferation
The inhibitory effect of the compounds on cell proliferation was assessed by detecting the number of viable cells using the CellTiter-Glo® reagent. NCI-H69 cells in the logarithmic growth phase were collected and inoculated into transparent bottom 96-well plates at a density 1×10^3 cells per well with 100 μL medium, and incubated at 37° C., 5% CO2 overnight. The compounds were sequentially diluted in a 5-fold concentration gradient with DMSO to obtain 8 different concentrations These were then diluted with RPMI-640 (containing 20% FBS) cell culture medium to obtain the compounds working solution (2×), which was added to the cell supernatant at 100 μL per well. The incubation continued for 7 days at 37° C., 5% CO2. The plate was then removed and equilibrated to room temperature (25° C.) along with the CellTiter-Glo® mixing reagent for 10-30 minutes. After centrifugation at 1200 rpm for 5 minutes, 120 μL of the culture medium was carefully aspirated from each well, and 60 μL of CellTiter-Glo® reagent was added. The cells were thoroughly mixed with the CellTiter-Glo® mixing reagent using a microplate shaker for 2 min. and then incubated at room temperature for 10 min. The 96-well plate was subsequently placed on a multifunctional microplate reader to record the Luminescence values (RLU).
The inhibition rate was calculated using the following formula: […]
as §3, §4

One may read the IC50 as the concentration that gives 50% inhibition. In the case of `COc1ccc(-c2c(OCCCCCCC(=O)NO)cc(N3C4CCC3CC(N)C4)nc2-c2ccc(C#N)c(F)c2)cc1O` (stereo not drawn) [Example 9, 7-((6-(3-Amino-8-azabicyclo[3.2.1]octan-8-yl)-2-(4-cyano-3-fluorophenyl)-3-(3-hydroxy-4-methoxyphenyl)pyridin-4-yl)oxy)-N-hydroxyheptanamide hydrochloride], the IC50 worked out at 1.82 nM on LSD1, 25.3 nM on pan-HDAC, 915 nM in the experiment with NCI-H1417 cells and 3100 nM with NCI-H69 cells.
Consider `COc1ccc(-c2c(OCCCCCCC(=O)NO)cc(N3CC4CC3CC4N)nc2-c2ccc(C#N)c(F)c2)cc1O` (stereo not drawn) [Example 15, 7-((6-(5-Amino-2-azabicyclo[2.2.1]heptan-2-yl)-2-(4-cyano-3-fluorophenyl)-3-(3-hydroxy-4-methoxyphenyl)pyridin-4-yl)oxy)-N-hydroxyheptanamide hydrochloride], for which the IC50 on LSD1 amounted to 1.45 nM; at pan-HDAC, 27.5 nM; in the experiment with NCI-H1417 cells, 221 nM; with NCI-H69 cells it was 2990 nM.
As to `N#Cc1ccc(-c2nc(N3CCC(N)CC3)cc(OCCCCCCC(=O)NO)c2-c2ccc(OCCO)cc2)cc1F` [Example 17, 7-((6-(4-Aminopiperidin-1-yl)-2-(4-cyano-3-fluorophenyl)-3-(4-(2-hydroxyethoxy)phenyl)pyridin-4-yl)oxy)-N-hydroxyheptanamide formate], the IC50 at LSD1 is 23.8 nM; against pan-HDAC it was 21.6 nM; in the experiment with NCI-H1417 cells, over 1000 nM; with NCI-H69 cells, 3270 nM.
Turning to `N#Cc1ccc(-c2nc(N3CC4CC3CC4N)n3ccnc3c2-c2ccc(OCCCCCCC(=O)NO)c(O)c2)cc1F` (stereo not drawn) [Example 22, 7-(4-(5-(5-(5-Amino-2-azabicyclo[2.2.1]heptan-2-yl)-7-(4-cyano-3-fluorophenyl)imidazo[1,2-c]pyrimidin-8-yl)-2-hydroxyphenoxy)-N-hydroxyheptanamide hydrochloride], the half-maximal inhibitory concentration (IC50) against LSD1 stood at 0.31 nM; at pan-HDAC it was 144 nM; with NCI-H1417 cells it was 106 nM; with NCI-H69 cells it was 4730 nM.
Take `COc1ccc(-c2c(-c3ccc(C#N)c(F)c3)nc(N3CCC(NCc4ccc(/C=C/C(=O)NO)cc4)CC3)n(C)c2=O)cc1O` [Example 67, (E)-3-(4-(((1-(4-(4-Cyano-3-fluorophenyl)-5-(3-hydroxy-4-methoxy-phenyl)-1-methyl-6-oxo-1,6-dihydro-pyrimidin-2-yl)piperidin-4-yl)amino)methyl)phenyl)-N-hydroxy-acrylamide formate]: the concentration for half-maximal inhibition (IC50) against LSD1 is 1.89 nM; on pan-HDAC, 39 nM; with NCI-H1417 cells, 21.2 nM; in the experiment on NCI-H69 cells, 444 nM.
In the case of `COc1ccc(-c2cnc(N3CCC(C)(NCc4ccc(/C=C/C(=O)NO)nc4)CC3)c(C#N)c2-c2ccc(C#N)c(F)c2)cc1O` [Example 213, (E)-3-(5-(((1-(3-Cyano-4-(4-cyano-3-fluorophenyl)-5-(3-hydroxy-4-methoxyphenyl)pyridin-2-yl)-4-methylpiperidin-4-yl)amino)methyl)pyridin-2-yl)-N-hydroxyacrylamide formate], the IC50 on LSD1 is 2.12 nM; at pan-HDAC it was 19.7 nM; with NCI-H1417 cells, 7.32 nM; with NCI-H69 cells, 76.1 nM.
For the molecule `CC1(NCc2ccc(/C=C/C(=O)NO)cc2)CCN(c2ncc(-c3ccc(OC(F)(F)F)c(O)c3)c(-c3ccc(C#N)c(F)c3)c2C#N)CC1` [Example 214, (E)-3-(4-(((1-(3-Cyano-4-(4-cyano-3-fluorophenyl)-5-(3-hydroxy-4-(trifluoromethoxy)phenyl)pyridin-2-yl)-4-methylpiperidin-4-yl)amino)methyl)phenyl)-N-hydroxyacrylamide formate], the IC50 against LSD1 came out at 4.98 nM; at pan-HDAC it was 143 nM; with NCI-H1417 cells, 7.9 nM; with NCI-H69 cells it was 496 nM.
For `CC(C)(O)COc1ccc(-c2cnc(N3CCC(C)(NCc4ccc(/C=C/C(=O)NO)cc4)CC3)c(C#N)c2-c2ccc(C#N)c(F)c2)cc1O` [Example 215, (E)-3-(4-(((1-(3-Cyano-4-(4-cyano-3-fluorophenyl)-5-(3-hydroxy-4-(2-hydroxy-2-methylpropoxy)phenyl)pyridin-2-yl)-4-methylpiperidin-4-yl)amino)methyl)phenyl)-N-hydroxyacrylamide formate], the IC50 at LSD1 came to 0.39 nM; on pan-HDAC it was 68 nM; in the experiment on NCI-H1417 cells it was 2.65 nM; in the experiment with NCI-H69 cells, 295 nM.
For the molecule `COc1ccc(-c2cnc(N3CCC(NCc4ccc(SCC(=O)NO)cc4)CC3)c(C#N)c2-c2ccc(C#N)c(F)c2)cc1O` [Example 216, 2-((4-((1-(3-cyano-4-(4-cyano-3-fluorophenyl)-5-(3-hydroxy-4-methoxyphenyl)pyridin-2-yl)piperidin-4-yl)amino)methyl)phenyl) thio)-N-hydroxyacetamide formate], the IC50 at LSD1 was 0.15 nM; on pan-HDAC, 3.57 nM; with NCI-H1417 cells it was 6.06 nM; with NCI-H69 cells, 51.6 nM.
`COc1ccc(-c2cnc(N3CCC(NCc4ccc(CC(F)C(=O)NO)cc4)CC3)c(C#N)c2-c2ccc(C#N)c(F)c2)cc1O` (stereo not drawn) [Example 219, 3-(4-((1-(3-Cyano-4-(4-cyano-3-fluorophenyl)-5-(3-hydroxy-4-methoxyphenyl)pyridin-2-yl)piperidin-4-yl)amino)methyl) phenyl)-2-fluoro-N-hydroxypropanamide formate]: the IC50 was 0.21 nM on LSD1, 9.28 nM against pan-HDAC, 7.13 nM in the experiment on NCI-H1417 cells and 149 nM with NCI-H69 cells.
For `COc1ccc(-c2cnc(N3CCC(NCc4ccc(/C=C(\C)C(=O)NO)nc4)CC3)c(C#N)c2-c2ccc(C#N)c(F)c2)cc1O` [Example 220, (E)-3-(5-(((1-(3-Cyano-4-(4-cyano-3-fluorophenyl)-5-(3-hydroxy-4-methoxyphenyl)pyridin-2-yl)piperidin-4-yl)amino)methyl)pyridin-2-yl)-N-hydroxy-2-methylacrylamide formate] the same measures were 0.42 nM, 937 nM, 6.86 nM and 2290 nM.
Turning to `COc1ccc(-c2cnc(N3CCC(NCc4ccc(CCC(=O)NO)cc4Cl)CC3)c(C#N)c2-c2ccc(C#N)c(F)c2)cc1O` [Example 222, 3-(3-chloro-4-((1-(3-cyano-4-(4-cyano-3-fluorophenyl)-5-(3-hydroxy-4-methoxyphenyl)pyridin-2-yl)piperidin-4-yl)amino)methyl) phenyl)-N-hydroxypropanamide formate], the IC50 on LSD1 came out at 0.03 nM; on pan-HDAC, 11.5 nM; in the experiment with NCI-H1417 cells it was 6.42 nM; with NCI-H69 cells, 35.8 nM.
